The text below walks through data of patent US20230285336A1, “COMPOSITION FOR PREVENTION AND TREATMENT OF SKIN DISEASES CAUSED BY GENETIC MUTATION COMPRISING FERULIC ACID AND ANALOGS THEREOF” (UNIVERSITY-INDUSTRY COOPERATION GROUP OF KYUNG HEE …, priority 2019, published 2023).

In assay [1] the test system is keratin 6A protein. Description: Keratin 6A protein expression in cultured skin tissue of mouse, immunofluorescence staining. The settings on record: cultured 12 days, compared to control group not treated (FIG. 1). The format is cell-based. On the procedure: (§1) In order to confirm whether ferulic acid induces the expression of keratin 6A protein from the skin tissue of a mouse, the cross-sections of the cultured skin tissue and the skin tissue of an adult mouse were treated with ferulic acid to confirm the expression level of keratin 6A protein using Western blotting and immunofluorescence staining.
First, after peeling off the skin of a mouse within one day of age, a circular skin piece was spread on a 24-well plate using a 4 mm punch (Kai industries). The cell medium was carefully added with the growth factor Cnt-57 according to the method of CELLnTEC, and the medium was replaced once every two days. […]
Specifically, for cell fluorescence staining, 500 μl of a 4% paraformaldehyde solution (solvent, PBS) was reacted for 20 minutes, and then washed three times with a washing buffer (0.1 M, PBS). […]
For tissue fluorescence staining, after removing paraffin from the paraffin-coated skin tissue, the tissue was washed three times with a washing buffer (0.1 M, PBS), and reacted with a solution containing hydrogen peroxide (0.1 M PBS, 0.2% H2O2) for 30 minutes to eliminate the activity of endogenous peroxidase. […] Then, after washing three times with a washing buffer (0.1 M, PBS), fluorescence photos were taken using a FluoView FV1000 confocal microscope (Olympus, Tokyo, Japan).

Assay [2] relates to keratin 6A protein. Description: Keratin 6A protein expression in skin tissue of an adult mouse, Western blotting and immunofluorescence staining. The format is in vivo. On the procedure: as §1
For tissue fluorescence staining, after removing paraffin from the paraffin-coated skin tissue, the tissue was washed three times with a washing buffer (0.1 M, PBS), and reacted with a solution containing hydrogen peroxide (0.1 M PBS, 0.2% H2O2) for 30 minutes to eliminate the activity of endogenous peroxidase. […] Then, after washing three times with a washing buffer (0.1 M, PBS), fluorescence photos were taken using a FluoView FV1000 confocal microscope (Olympus, Tokyo, Japan). […]
(§2) First, in order to confirm the expression levels of two proteins, keratin 6A and beta-catenin, skin tissue was collected and protein was extracted using a dissolution buffer (pH 7.4, 50 mM, Tris-HCL, 150 mM NaCL, 1 mM EDTA, 1 mM EGTA, 10 mg/mL aprotinin, 10 mg/mL leupeptin, 5 mM phenylmethylsulfonyl fluoride and 1 mM DTT). The extracted protein was quantified using a Bradford reaction solution (Bio-Rad, CA, USA), and 20 μL of the protein was electrophoresed by 10% SDS-PAGE, and transferred to a nitrocellulose membrane (Merck, MA, USA). […]
A general note: Immunoblotting shows a protein as a band on a membrane.

Assay [3] relates to keratin 6A protein. Description: Keratin 6A protein expression in keratin 5 knock-down kera308 cells, Western blotting. The format is cell-based, mouse. The settings on record: 100 μM, 24 hours, compared to not treated (FIG. 6). On the procedure:
as §2, with “USA). The membrane was reacted with primary antibodies keratin 6A (rabbit anti-keratin 6A, 1:200, Covans, NJ, USA) and β-actin (anti-β-actin extracted from mouse, 1:1000, Santa Cruz, TX, USA), and washed three times with TBS-T (Tris Buffered Saline with Tween 20) for 10 minutes, and then the membrane was reacted with a secondary antibody (Santa Cruz, TX, USA) for 1 hour.” for “USA).”
The cells were precultured for 15 hours after attaching 1×10^6 cells/well of kera308 cells, and cultured for 24 hours after being treated with 100 μM ferulic acid. The harvested cells were centrifuged at 13,000 rpm for 5 minutes to take the supernatant, and then the protein concentration was quantified using Bradford assay (BioRed). […]

Assay [4] concerns beta-catenin protein. Description: Beta-catenin protein expression in skin epidermal stem cells, immunofluorescence staining and Western blotting. The settings on record: skin epidermal stem cells (FIGS. 7 and 8). The format is cell-based, mouse. On the procedure:
(§3) In order to confirm whether ferulic acid regulates beta-catenin protein, an experiment was carried out to confirm the expression levels of beta-catenin protein and c-myc protein in epidermal cells and dermal cells of the skin.
(§4) The expression levels of beta-catenin protein and c-myc protein after treating skin epidermal stem cells with ferulic acid, and the expression levels of beta-catenin protein and c-myc protein after treating skin epidermal stem cells with ferulic acid together with LiCl, which is a beta-catenin protein inducer, were confirmed using immunofluorescence staining and Western blotting.
(§5) First, for immunofluorescence staining, the cell fluorescence staining method of Example 1 was referred to. At this time, beta-catenin (anti-beta-catenin extracted from mouse, 1:200, Invitrogen, CA, USA) was used instead of keratin 6A as a primary antibody, and Alexa 647 (anti-mouse IgG derived from goat, 1:1000, Invitrogen, CA, USA) was used instead of Alexa 488 (anti-rabbit IgG extracted from donkey, 1:1000, Invitrogen, CA, USA) as a secondary antibody.
(§6) In addition, for Western blotting, the Western blotting method of Example 1 was referred to. In this case, beta-catenin (anti-beta catenin extracted from mouse, 1:200, Invitrogen, CA, USA) was used instead of keratin 6A as a primary antibody.

In assay [5] the test system is c-myc protein. Description: c-myc protein expression in skin epidermal stem cells. The assay is classed as cell-based, mouse. The settings on record: skin epidermal stem cells (FIGS. 7 and 8). On the procedure: as §3, §4, §5, §6
Assay [6] concerns beta-catenin protein. Description: Beta-catenin protein expression in skin dermal stem cells, immunofluorescence staining and Western blotting. The settings on record: skin dermal stem cells (FIGS. 9 and 10). The format is cell-based, mouse. On the procedure:
as §3
(§7) The expression levels of beta-catenin protein and c-myc protein after treating skin dermal stem cells with ferulic acid, and the expression levels of beta-catenin protein and c-myc protein after treating skin dermal stem cells with ferulic acid together with LiCl, which is a beta-catenin protein inducer, were confirmed using immunofluorescence staining and Western blotting.
as §5, §6

Assay [7] relates to c-myc protein. Description: c-myc protein expression in skin dermal stem cells. The assay is classed as cell-based, mouse. The settings on record: skin dermal stem cells (FIGS. 9 and 10). On the procedure: as §3, §7, §5, §6

On to `COc1cc(/C=C/C(=O)O)ccc1O` [ferulic acid], for which the “expression level of keratin 6A protein” value in the assay on keratin 6A protein [1] is recorded as “increased”; in the assay with keratin 6A protein [2] (skin tissue of an adult mouse treated for 3 days and 7 days (FIGS. 2 and 3)), “increased significantly”; in the assay on keratin 6A protein [2] (skin tissue of an adult mouse, 3 days after treating (FIGS. 2 and 3)), “particularly high”; in the assay with keratin 6A protein [3], “increased significantly”. In the assay with beta-catenin protein [4], the “expression of beta-catenin protein” value is on record as “suppressed”. The “expression of c-myc protein” value in the assay on c-myc protein [5] is on record as “suppressed”. In addition, the “amount of beta-catenin protein” value with beta-catenin protein [6] was “increased”. Besides, the “amount of c-myc protein” value with c-myc protein [7] is “increased”.
